Reference: patent US20230041563A1, “N-(1,3,4-OXADIAZOL-2-YL)ARYLCARBOXAMIDES OR SALTS THEREOF, PREPARATION METHODS, HERBICIDAL COMPOSITIONS AND USES THEREOF” (priority 2018, published 2023)

What was measured:
Test in all cases: Weeding effect in post-emergence stage (greenhouse pot spray)
Assay type in all cases: in vivo
[1] = test system: Stellaria media
From the text: (§1) The activity level criteria for plant damage (i.e., growth control rate) are as follows:
(§2) The above growth control rates are fresh weight control rates.
(§3) Experiment on weeding effect in post-emergence stage: monocotyledonous and dicotyledonous weed seeds (Descurainia sophia, Capsella bursa-pastoris, Abutilon theophrasti, Galium aparine, Stellaria media, Lithospermum arvense, rorippa indica, Alopecurus aequalis, Beckmannia syzigachne, Sclerochloa dura, Phleum paniculatum, Bromus japonicus, Aegilops tauschii, Phalaris arundinacea, Amaranthus retroflexus, Chenopodiaceae, Commelina communis, Sonchus arvensis, convolvulus arvensis, Cirsium setosum, Solanum nigrum, Acalypha australis, Digitaria sanguinalis, Echinochloa crusgalli, Setaria viridis, Setaria glauca, Leptochloa chinensis, Monochoria vaginalis, Sagittaria trifolia, Scirpus juncoides, Cyperus rotundus, Cyperus iria, Cyperus difformis, Fimbristylis, Portulaca oleracea, Xanthium sibiricum, Pharbitis nil) and major crop seeds (wheat, corn, rice, soybean, cotton, oilseed rape, millet, sorghum, potato, sesame, ricinus) were placed in plastic pots filled with soil, then covered with 0.5-2 cm of soil, allowed to grow in a good greenhouse environment. After 2 weeks of sowing, the test plants were treated in the 2 to 3 leaf stage. The tested compounds of the present invention were respectively dissolved in acetone, then added with Tween 80 and 1.5 liter/ha of emulsifiable concentrate of methyl oleate as synergist, diluted with a certain amount of water to obtain a solution with a certain concentration, and sprayed with a spray tower onto the plants. After the application, the plants were cultured for 3 weeks in the greenhouse, and then the experimental results of the weeding were counted. The doses of the used compounds were 500, 250, 125, 60, 15 g a.i./ha, and the averages were obtained by repeating for three times.

[2] = test system: Amaranthus retroflexus
From the text: as §1, §2, §3

[3] = test system: Digitaria sanguinalis
Outline: (§4)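 Post-emergence foliar spray on 2-3 leaf greenhouse pot plants at 15 to 500 g a.i./ha with methyl oleate emulsifiable concentrate (1.5 liter/ha) added; growth control by fresh weight after 3 weeks.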

[4] = test system: Echinochloa crusgalli
Outline: as §4

[5] = test system: Abutilon theophrasti
Outline: as §4

Compound | Stellaria media (activity level) ([1]; Table 2, dose 500 g a.i./ha) | Amaranthus retroflexus (activity level) ([2]; Table 2, dose 500 g a.i./ha) | Digitaria sanguinalis (activity level) ([3]; Table 2, dose 500 g a.i./ha) | Echinochloa crusgah (activity level) ([4]; Table 2, dose 500 g a.i./ha) | Abutilion theophrasti (activity level) ([5]; Table 2, dose 500 g a.i./ha) | Amaranthus retroflexus (activity level) ([2]; Table 2, dose 250 g a.i./ha) | Digitaria sanguinalis (activity level) ([3]; Table 2, dose 250 g a.i./ha) | Echinochloa crusgah (activity level) ([4]; Table 2, dose 250 g a.i./ha) | Abutilion theophrasti (activity level) ([5]; Table 2, dose 250 g a.i./ha) | other results
COC[S+]([O-])c1c(C(F)(F)F)ccc(C(=O)Nc2nnc(C)o2)c1F (stereo not drawn) [Compound 1-443] | 5 (Level 5: growth control rate is above 85%) | 5 (Level 5: growth control rate is above 85%) | 5 (Level 5: growth control rate is above 85%) | 5 (Level 5: growth control rate is above 85%) | 5 (Level 5: growth control rate is above 85%) | – | – | – | – | –
Cc1nnc(NC(=O)c2ccc(C(F)(F)F)c(SCC(F)(F)F)c2F)o1 [Compound 1-50] | 5 (Level 5: growth control rate is above 85%) | 5 (Level 5: growth control rate is above 85%) | 5 (Level 5: growth control rate is above 85%) | 5 (Level 5: growth control rate is above 85%) | 5 (Level 5: growth control rate is above 85%) | – | – | – | – | –
Cc1nnc(NC(=O)c2ccc(C(F)(F)F)c(S(=O)(=O)C(C)C)c2F)o1 [Compound 1-12] | – | – | – | – | – | 5 (Level 5: growth control rate is above 85%) | 5 (Level 5: growth control rate is above 85%) | 5 (Level 5: growth control rate is above 85%) | 5 (Level 5: growth control rate is above 85%) | Stellaria media (activity level) ([1]; Table 2, dose 250 g a.i./ha): 5 (Level 5: growth control rate is above 85%)
CC(C)=NOCCSc1c(C(F)(F)F)ccc(C(=O)Nc2nnc(C)o2)c1F [Compound 1-144] | 5 (Level 5: growth control rate is above 85%) | 5 (Level 5: growth control rate is above 85%) | – | 5 (Level 5: growth control rate is above 85%) | 5 (Level 5: growth control rate is above 85%) | – | – | – | – | –
CC(C)[S+]([O-])c1c(C(F)(F)F)ccc(C(=O)Nc2nnco2)c1F (stereo not drawn) [Compound 3-11] | 5 (Level 5: growth control rate is above 85%) | 5 (Level 5: growth control rate is above 85%) | 5 (Level 5: growth control rate is above 85%) | 5 (Level 5: growth control rate is above 85%) | 5 (Level 5: growth control rate is above 85%) | – | – | – | – | –
Cc1nnc(NC(=O)c2ccc(C(F)(F)F)c([S+]([O-])CCCC(F)(F)F)c2F)o1 (stereo not drawn) [Compound 1-411] | – | – | – | – | – | 5 (Level 5: growth control rate is above 85%) | 5 (Level 5: growth control rate is above 85%) | 5 (Level 5: growth control rate is above 85%) | 5 (Level 5: growth control rate is above 85%) | –
CCC(C)C[S+]([O-])c1c(C(F)(F)F)ccc(C(=O)Nc2nnc(C)o2)c1F (mixture of isomers) [Compound 1-29] | 5 (Level 5: growth control rate is above 85%) | 5 (Level 5: growth control rate is above 85%) | 5 (Level 5: growth control rate is above 85%) | 5 (Level 5: growth control rate is above 85%) | 5 (Level 5: growth control rate is above 85%) | – | – | – | – | –
Cc1nnc(NC(=O)c2ccc(C(F)(F)F)c([S+]([O-])CCC3CC3)c2F)o1 (stereo not drawn) [Compound 1-395] | – | 5 (Level 5: growth control rate is above 85%) | 5 (Level 5: growth control rate is above 85%) | 5 (Level 5: growth control rate is above 85%) | 5 (Level 5: growth control rate is above 85%) | – | – | – | – | –
COCCC[S+]([O-])c1c(C(F)(F)F)ccc(C(=O)Nc2nnc(C)o2)c1F (stereo not drawn) [Compound 1-448] | 5 (Level 5: growth control rate is above 85%) | 5 (Level 5: growth control rate is above 85%) | 5 (Level 5: growth control rate is above 85%) | 5 (Level 5: growth control rate is above 85%) | 5 (Level 5: growth control rate is above 85%) | – | – | – | – | –
CCCCS(=O)(=O)c1c(C(F)(F)F)ccc(C(=O)Nc2nnc(C)o2)c1F [Compound 1-15] | – | – | – | – | – | 5 (Level 5: growth control rate is above 85%) | – | – | 5 (Level 5: growth control rate is above 85%) | Stellaria media (activity level) ([1]; Table 2, dose 250 g a.i./ha): 5 (Level 5: growth control rate is above 85%)
Cc1nnc(NC(=O)c2ccc(C(F)(F)F)c([S+]([O-])CCC(F)(F)C(F)(F)F)c2F)o1 (stereo not drawn) [Compound 1-412] | – | – | – | – | – | 5 (Level 5: growth control rate is above 85%) | 5 (Level 5: growth control rate is above 85%) | 5 (Level 5: growth control rate is above 85%) | 5 (Level 5: growth control rate is above 85%) | –
Cc1nnc(NC(=O)c2ccc(C(F)(F)F)c([S+]([O-])CC(C)F)c2F)o1 (stereo not drawn) [Compound 1-404] | – | – | – | – | – | – | – | – | – | Amaranthus retroflexus (activity level) ([2]; Table 2, dose 125 g a.i./ha): 5 (Level 5: growth control rate is above 85%); Digitaria sanguinalis (activity level) ([3]; Table 2, dose 125 g a.i./ha): 5 (Level 5: growth control rate is above 85%); Echinochloa crusgah (activity level) ([4]; Table 2, dose 125 g a.i./ha): 5 (Level 5: growth control rate is above 85%); Abutilion theophrasti (activity level) ([5]; Table 2, dose 125 g a.i./ha): 5 (Level 5: growth control rate is above 85%)
CC#CC[S+]([O-])c1c(C(F)(F)F)ccc(C(=O)Nc2nnc(C)o2)c1F (stereo not drawn) [Compound 1-402] | – | – | – | – | – | 5 (Level 5: growth control rate is above 85%) | 5 (Level 5: growth control rate is above 85%) | 5 (Level 5: growth control rate is above 85%) | 5 (Level 5: growth control rate is above 85%) | –
Cc1nnc(NC(=O)c2ccc(C(F)(F)F)c([S+]([O-])CCC(F)(C(F)(F)F)C(F)(F)F)c2F)o1 (stereo not drawn) [Compound 1-413] | – | 5 (Level 5: growth control rate is above 85%) | 5 (Level 5: growth control rate is above 85%) | 5 (Level 5: growth control rate is above 85%) | – | – | – | – | – | –
Cc1nnc(NC(=O)c2ccc(C(F)(F)F)c([S+]([O-])CCCF)c2F)o1 (stereo not drawn) [Compound 1-403] | – | – | – | – | – | – | – | – | – | Amaranthus retroflexus (activity level) ([2]; Table 2, dose 125 g a.i./ha): 5 (Level 5: growth control rate is above 85%); Digitaria sanguinalis (activity level) ([3]; Table 2, dose 125 g a.i./ha): 5 (Level 5: growth control rate is above 85%); Echinochloa crusgah (activity level) ([4]; Table 2, dose 125 g a.i./ha): 5 (Level 5: growth control rate is above 85%); Abutilion theophrasti (activity level) ([5]; Table 2, dose 125 g a.i./ha): 5 (Level 5: growth control rate is above 85%)
Cc1nnc(NC(=O)c2ccc(C(F)(F)F)c([S+]([O-])CCCC#N)c2F)o1 (stereo not drawn) [Compound 1-428] | – | 5 (Level 5: growth control rate is above 85%) | 5 (Level 5: growth control rate is above 85%) | 5 (Level 5: growth control rate is above 85%) | 5 (Level 5: growth control rate is above 85%) | – | – | – | – | –
C#CCC[S+]([O-])c1c(C(F)(F)F)ccc(C(=O)Nc2nnc(C)o2)c1F (stereo not drawn) [Compound 1-401] | – | – | – | – | – | 5 (Level 5: growth control rate is above 85%) | 5 (Level 5: growth control rate is above 85%) | 5 (Level 5: growth control rate is above 85%) | 5 (Level 5: growth control rate is above 85%) | –
Cc1nnc(NC(=O)c2ccc(C(F)(F)F)c([S+]([O-])CCC#N)c2F)o1 (stereo not drawn) [Compound 1-427] | – | 5 (Level 5: growth control rate is above 85%) | 5 (Level 5: growth control rate is above 85%) | 5 (Level 5: growth control rate is above 85%) | 5 (Level 5: growth control rate is above 85%) | – | – | – | – | –
Cc1nnc(NC(=O)c2ccc(C(F)(F)F)c(SC(C)C)c2F)o1 [Compound 1-10] | – | – | – | – | – | 5 (Level 5: growth control rate is above 85%) | – | 5 (Level 5: growth control rate is above 85%) | 5 (Level 5: growth control rate is above 85%) | Stellaria media (activity level) ([1]; Table 2, dose 250 g a.i./ha): 5 (Level 5: growth control rate is above 85%)
Cc1nnc(NC(=O)c2ccc(C(F)(F)F)c([S+]([O-])CCCCl)c2F)o1 (stereo not drawn) [Compound 1-414] | – | – | – | – | – | 5 (Level 5: growth control rate is above 85%) | 5 (Level 5: growth control rate is above 85%) | 5 (Level 5: growth control rate is above 85%) | 5 (Level 5: growth control rate is above 85%) | –
